Results on 18 molecules are retold here after ChEMBL document CHEMBL6127009, “Discovery of L15 as a novel Vif PROTAC degrader with antiviral activity against HIV-1” (Bioorg Med Chem Lett, 2024).

Structures are written as SMILES. pEC50: −log10 of the molar value. Structures can show the parent of a compound that is named as a salt. Calls of active or inactive are those of the source. The calls are words filed in the database; no cut-off is given here.

One series deals with Human immunodeficiency virus 1. Description: Antiviral activity against HIV-1 IIIB infected in TZM-bl cells. The format is functional, organism-based. Conditions: Human immunodeficiency virus 1, IIIB.
Usually pEC50 stands for the negative decadic logarithm of the EC50, by convention in mol/L. Regarding `COc1ccc(OCC(=O)NCCNCC(=O)Nc2cccc3c2C(=O)N(C2CCC(=O)NC2=O)C3=O)cc1NC(=O)c1c(N)cccc1S(=O)(=O)c1ccc([N+](=O)[O-])cc1` (configuration not stated), the pEC50 is below 4.00.

Consider `COc1ccc(OCC(=O)NCCCCNc2cccc3c2C(=O)N(C2CCC(=O)NC2=O)C3=O)cc1NC(=O)c1c(N)cccc1S(=O)(=O)c1ccc([N+](=O)[O-])cc1` (configuration not stated), for which the pEC50 is below 4.00.

As to `CC(C)OC(=O)OCOP(=O)(CO[C@H](C)Cn1cnc2c(N)ncnc21)OCOC(=O)OC(C)C` [TENOFOVIR DISOPROXIL FUMARATE], the pEC50 is 8.30.

In the case of `COc1ccc(OCC(=O)NCCCCCCNc2cccc3c2C(=O)N(C2CCC(=O)NC2=O)C3=O)cc1NC(=O)c1c(N)cccc1S(=O)(=O)c1ccc([N+](=O)[O-])cc1` (configuration not stated), the pEC50 was below 4.00.

Molecule `COc1ccc(OCC(=O)NCCCCNCC(=O)Nc2cccc3c2C(=O)N(C2CCC(=O)NC2=O)C3=O)cc1NC(=O)c1c(N)cccc1S(=O)(=O)c1ccc([N+](=O)[O-])cc1` (configuration not stated) gave a pEC50 below 4.00.

`COc1ccc(OCC(=O)NCCCCNc2cccc3c2C(=O)N(C2CCC(=O)NC2=O)C3=O)cc1NC(=O)c1c(N)cccc1Sc1ccc([N+](=O)[O-])cc1` (configuration not stated): the pEC50 was 4.46.

With `COc1ccc(OCC(=O)NCCCCCCNc2cccc3c2C(=O)N(C2CCC(=O)NC2=O)C3=O)cc1NC(=O)c1c(N)cccc1Sc1ccc([N+](=O)[O-])cc1` (configuration not stated), the pEC50 is below 4.00.

`COc1ccc(OCC(=O)NCCOCCNc2cccc3c2C(=O)N(C2CCC(=O)NC2=O)C3=O)cc1NC(=O)c1c(N)cccc1Sc1ccc([N+](=O)[O-])cc1` (configuration not stated) showed a pEC50 below 4.00.

On to `COc1ccc(OCC(=O)NCCCCCCCCCCNCC(=O)Nc2cccc3c2C(=O)N(C2CCC(=O)NC2=O)C3=O)cc1NC(=O)c1c(N)cccc1S(=O)(=O)c1ccc([N+](=O)[O-])cc1` (configuration not stated), for which the pEC50 is 4.54.

`COc1ccc(OCC(=O)NCCOCCOCCNc2cccc3c2C(=O)N(C2CCC(=O)NC2=O)C3=O)cc1NC(=O)c1c(N)cccc1S(=O)(=O)c1ccc([N+](=O)[O-])cc1` (configuration not stated) showed a pEC50 below 4.00.

On to `COc1ccc(OCC(=O)NCCOCCOCCOCCNCC(=O)Nc2cccc3c2C(=O)N(C2CCC(=O)NC2=O)C3=O)cc1NC(=O)c1c(N)cccc1Sc1ccc([N+](=O)[O-])cc1` (configuration not stated), for which the pEC50 is below 4.00.

In the case of `COc1ccc(O)cc1NC(=O)c1c(N)cccc1Sc1ccc([N+](=O)[O-])cc1`, the pEC50 was 5.22.

`COc1ccc(OCC(=O)NCCCCCCCCCCNc2cccc3c2C(=O)N(C2CCC(=O)NC2=O)C3=O)cc1NC(=O)c1c(N)cccc1Sc1ccc([N+](=O)[O-])cc1` (configuration not stated) had a pEC50 below 4.00.

`COc1ccc(OCC(=O)NCCCCCCCCCCNCC(=O)Nc2cccc3c2C(=O)N(C2CCC(=O)NC2=O)C3=O)cc1NC(=O)c1c(N)cccc1Sc1ccc([N+](=O)[O-])cc1` (configuration not stated): the pEC50 was below 4.00.

`COc1ccc(OCC(=O)NCCCCCCCCNc2cccc3c2C(=O)N(C2CCC(=O)NC2=O)C3=O)cc1NC(=O)c1c(N)cccc1Sc1ccc([N+](=O)[O-])cc1` (configuration not stated) showed a pEC50 below 4.00.

As for `COc1ccc(OCC(=O)NCCOCCNCC(=O)Nc2cccc3c2C(=O)N(C2CCC(=O)NC2=O)C3=O)cc1NC(=O)c1c(N)cccc1S(=O)(=O)c1ccc([N+](=O)[O-])cc1` (configuration not stated), the pEC50 is below 4.00.

Molecule `COc1ccc(OCC(=O)NCCNCC(=O)Nc2cccc3c2C(=O)N(C2CCC(=O)NC2=O)C3=O)cc1NC(=O)c1c(N)cccc1Sc1ccc([N+](=O)[O-])cc1` (configuration not stated) had a pEC50 below 4.00.

Molecule `COc1ccc(OCC(=O)NCCOCCOCCNCC(=O)Nc2cccc3c2C(=O)N(C2CCC(=O)NC2=O)C3=O)cc1NC(=O)c1c(N)cccc1Sc1ccc([N+](=O)[O-])cc1` (configuration not stated) showed a pEC50 of 4.27.

Test system in the next series: not listed separately
Description: Cytotoxicity against human TZM-bl cells. The format is toxicity, cell-based.
Details: not given
A word on the CC50: it is the concentration giving 50% cytotoxicity. As for `COc1ccc(OCC(=O)NCCNCC(=O)Nc2cccc3c2C(=O)N(C2CCC(=O)NC2=O)C3=O)cc1NC(=O)c1c(N)cccc1S(=O)(=O)c1ccc([N+](=O)[O-])cc1` (configuration not stated), the CC50 was above 200 µM.

Regarding `COc1ccc(OCC(=O)NCCCCNc2cccc3c2C(=O)N(C2CCC(=O)NC2=O)C3=O)cc1NC(=O)c1c(N)cccc1S(=O)(=O)c1ccc([N+](=O)[O-])cc1` (configuration not stated), the 50% cytotoxic concentration (CC50) is above 200 µM.

As for `CC(C)OC(=O)OCOP(=O)(CO[C@H](C)Cn1cnc2c(N)ncnc21)OCOC(=O)OC(C)C` [TENOFOVIR DISOPROXIL FUMARATE], the CC50 is above 200 µM.

In turn, `COc1ccc(OCC(=O)NCCCCCCNc2cccc3c2C(=O)N(C2CCC(=O)NC2=O)C3=O)cc1NC(=O)c1c(N)cccc1S(=O)(=O)c1ccc([N+](=O)[O-])cc1` (configuration not stated) showed a CC50 above 200 µM.

`COc1ccc(OCC(=O)NCCCCNCC(=O)Nc2cccc3c2C(=O)N(C2CCC(=O)NC2=O)C3=O)cc1NC(=O)c1c(N)cccc1S(=O)(=O)c1ccc([N+](=O)[O-])cc1` (configuration not stated) gave a CC50 above 200 µM.

For `COc1ccc(OCC(=O)NCCCCNc2cccc3c2C(=O)N(C2CCC(=O)NC2=O)C3=O)cc1NC(=O)c1c(N)cccc1Sc1ccc([N+](=O)[O-])cc1` (configuration not stated), the CC50 is above 200 µM.

`COc1ccc(OCC(=O)NCCCCCCNc2cccc3c2C(=O)N(C2CCC(=O)NC2=O)C3=O)cc1NC(=O)c1c(N)cccc1Sc1ccc([N+](=O)[O-])cc1` (configuration not stated) returned a CC50 above 200 µM.

Molecule `COc1ccc(OCC(=O)NCCOCCNc2cccc3c2C(=O)N(C2CCC(=O)NC2=O)C3=O)cc1NC(=O)c1c(N)cccc1Sc1ccc([N+](=O)[O-])cc1` (configuration not stated) had a CC50 above 200 µM.

For `COc1ccc(OCC(=O)NCCCCCCCCCCNCC(=O)Nc2cccc3c2C(=O)N(C2CCC(=O)NC2=O)C3=O)cc1NC(=O)c1c(N)cccc1S(=O)(=O)c1ccc([N+](=O)[O-])cc1` (configuration not stated), the CC50 is above 200 µM.

With `COc1ccc(OCC(=O)NCCOCCOCCNc2cccc3c2C(=O)N(C2CCC(=O)NC2=O)C3=O)cc1NC(=O)c1c(N)cccc1S(=O)(=O)c1ccc([N+](=O)[O-])cc1` (configuration not stated), the CC50 is above 200 µM.

As to `COc1ccc(OCC(=O)NCCOCCOCCOCCNCC(=O)Nc2cccc3c2C(=O)N(C2CCC(=O)NC2=O)C3=O)cc1NC(=O)c1c(N)cccc1Sc1ccc([N+](=O)[O-])cc1` (configuration not stated), the CC50 was above 200 µM.

Turning to `COc1ccc(O)cc1NC(=O)c1c(N)cccc1Sc1ccc([N+](=O)[O-])cc1`, the CC50 is above 200 µM.

For `COc1ccc(OCC(=O)NCCCCCCCCCCNc2cccc3c2C(=O)N(C2CCC(=O)NC2=O)C3=O)cc1NC(=O)c1c(N)cccc1Sc1ccc([N+](=O)[O-])cc1` (configuration not stated), the 50% cytotoxic concentration (CC50) was above 200 µM.

As for `COc1ccc(OCC(=O)NCCCCCCCCCCNCC(=O)Nc2cccc3c2C(=O)N(C2CCC(=O)NC2=O)C3=O)cc1NC(=O)c1c(N)cccc1Sc1ccc([N+](=O)[O-])cc1` (configuration not stated), the CC50 is above 200 µM.

Take `COc1ccc(OCC(=O)NCCCCCCCCNc2cccc3c2C(=O)N(C2CCC(=O)NC2=O)C3=O)cc1NC(=O)c1c(N)cccc1Sc1ccc([N+](=O)[O-])cc1` (configuration not stated): the CC50 is above 200 µM.

Take `COc1ccc(OCC(=O)NCCOCCNCC(=O)Nc2cccc3c2C(=O)N(C2CCC(=O)NC2=O)C3=O)cc1NC(=O)c1c(N)cccc1S(=O)(=O)c1ccc([N+](=O)[O-])cc1` (configuration not stated): the CC50 is above 200 µM.

Take `COc1ccc(OCC(=O)NCCNCC(=O)Nc2cccc3c2C(=O)N(C2CCC(=O)NC2=O)C3=O)cc1NC(=O)c1c(N)cccc1Sc1ccc([N+](=O)[O-])cc1` (configuration not stated): the CC50 was above 200 µM.

The molecule `COc1ccc(OCC(=O)NCCOCCOCCNCC(=O)Nc2cccc3c2C(=O)N(C2CCC(=O)NC2=O)C3=O)cc1NC(=O)c1c(N)cccc1Sc1ccc([N+](=O)[O-])cc1` (configuration not stated) showed a CC50 above 200 µM.

Test system in the next series: not listed separately
As to the kind of experiment: Therapeutic index, ratio of CC50 for human TZM-bl cells to EC50 for HIV IIIB infected in TZM-bl cells. Conditions: read-out: Ratio CC50/EC50. The format is toxicity, cell-based.
On to `CC(C)OC(=O)OCOP(=O)(CO[C@H](C)Cn1cnc2c(N)ncnc21)OCOC(=O)OC(C)C` [TENOFOVIR DISOPROXIL FUMARATE], for which the selectivity ratio was above 43800.

As for `COc1ccc(OCC(=O)NCCCCNc2cccc3c2C(=O)N(C2CCC(=O)NC2=O)C3=O)cc1NC(=O)c1c(N)cccc1Sc1ccc([N+](=O)[O-])cc1` (configuration not stated), the selectivity ratio was above 5.76.

Regarding `COc1ccc(OCC(=O)NCCCCCCCCCCNCC(=O)Nc2cccc3c2C(=O)N(C2CCC(=O)NC2=O)C3=O)cc1NC(=O)c1c(N)cccc1S(=O)(=O)c1ccc([N+](=O)[O-])cc1` (configuration not stated), the selectivity ratio is above 6.9.

As for `COc1ccc(O)cc1NC(=O)c1c(N)cccc1Sc1ccc([N+](=O)[O-])cc1`, the selectivity ratio was above 33.5.

As for `COc1ccc(OCC(=O)NCCOCCOCCNCC(=O)Nc2cccc3c2C(=O)N(C2CCC(=O)NC2=O)C3=O)cc1NC(=O)c1c(N)cccc1Sc1ccc([N+](=O)[O-])cc1` (configuration not stated), the selectivity ratio is above 3.77.

The target in another series is Protein cereblon/Virion infectivity factor (Human immunodeficiency virus type 1 group M subtype B (isolate NY5)(HIV-1)) (UniProt Q96SW2+P12504). As to the kind of experiment: PROTAC activity at CRBN (unknown origin)/Vif in HIV-1 TREX-hvif-15 cells assessed as reduction in Vif protein level at 50 uM by Western blotting analysis. The series is classed as cell-based. Conditions: TREX-hvif-15 cell. In general terms: Immunoblotting shows a protein as a band on a membrane.
Protein cereblon/Virion infectivity factor (Human immunodeficiency virus type 1 group M subtype B (isolate NY5)(HIV-1)), sequence (P12504 whole entry, looked up): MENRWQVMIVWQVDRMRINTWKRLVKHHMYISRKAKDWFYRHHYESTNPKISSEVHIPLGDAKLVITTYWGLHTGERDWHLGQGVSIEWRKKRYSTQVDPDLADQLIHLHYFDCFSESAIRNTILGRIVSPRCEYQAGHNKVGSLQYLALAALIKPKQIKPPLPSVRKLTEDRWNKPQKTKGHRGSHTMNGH
Protein cereblon/Virion infectivity factor (Human immunodeficiency virus type 1 group M subtype B (isolate NY5)(HIV-1)), sequence (Q96SW2 whole entry, looked up): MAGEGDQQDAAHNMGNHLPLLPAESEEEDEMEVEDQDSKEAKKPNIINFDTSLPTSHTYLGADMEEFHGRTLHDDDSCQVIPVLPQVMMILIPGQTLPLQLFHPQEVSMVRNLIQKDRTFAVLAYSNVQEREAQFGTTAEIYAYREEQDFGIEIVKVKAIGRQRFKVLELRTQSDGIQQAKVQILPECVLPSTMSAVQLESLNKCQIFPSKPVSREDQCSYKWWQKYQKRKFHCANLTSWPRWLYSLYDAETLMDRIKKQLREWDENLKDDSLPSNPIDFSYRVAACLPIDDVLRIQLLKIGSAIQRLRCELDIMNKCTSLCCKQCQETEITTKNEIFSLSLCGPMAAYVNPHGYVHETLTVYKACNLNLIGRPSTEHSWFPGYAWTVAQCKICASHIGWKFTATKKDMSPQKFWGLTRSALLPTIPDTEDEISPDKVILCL
Regarding `COc1ccc(O)cc1NC(=O)c1c(N)cccc1Sc1ccc([N+](=O)[O-])cc1`, the result was inactive.
